Results from ChEMBL document CHEMBL3102743, “Regulation of crosstalk between epithelial to mesenchymal transition molecules and MMP-9 mediates the antimetastatic activity of anethole in DU145 prostate cancer cells” (J Nat Prod, 2014).
Activity calls are given as the source filed them.

Assays:
DU-145 [1] = assay: Antimetastatic activity in human DU145 cells assessed as decrease of MMP9 mRNA expression at 25 to 100 uM by RT-PCR analysis; assay type: functional, cell-based
DU-145 [2] = assay: Antiinvasive activity in human DU145 cells assessed as reduction of number of invaded cells through matrigel at 25 to 100 uM after 8 hrs by Boyden chamber invasion assay; assay type: functional, cell-based
DU-145 [3] = assay: Antimetastatic activity in human DU145 cells assessed as increase of E-cadherin mRNA expression at 25 to 100 uM by RT-PCR analysis; assay type: functional, cell-based
[4] = biological target: Matrix metalloproteinase-9 (Homo sapiens) (UniProt P14780); assay: Inhibition of MMP9 in human DU145 cells after 24 hrs by SDS-PAGE gelatin zymography assay; assay type: cell-based; settings: DU-145
DU-145 [5] = assay: Cytotoxicity against human DU145 cells assessed as cell viability up to 200 uM after 24 hrs by MTT assay; assay type: cell-based; settings: du-145, 24 h
DU-145 [6] = assay: Antimetastatic activity in human DU145 cells assessed as decrease of twist expression at 25 to 100 uM by Western blotting; assay type: functional, cell-based
DU-145 [7] = assay: Antimetastatic activity in human DU145 cells assessed as increase of E-cadherin expression at 100 uM after 24 hrs by immunofluorescence analysis in presence of TGF-beta; assay type: functional, cell-based
DU-145 [8] = assay: Antimetastatic activity in human DU145 cells assessed as increase of E-cadherin expression at 25 to 100 uM by Western blotting; assay type: functional, cell-based
DU-145 [9] = assay: Antimetastatic activity in MMP9 siRNA transfected human DU145 cells assessed as increase of E-cadherin expression at 25 to 100 uM by Western blotting; assay type: functional, cell-based
DU-145 [10] = assay: Antimetastatic activity in human DU145 cells assessed as decrease of twist mRNA expression at 25 to 100 uM by RT-PCR analysis; assay type: functional, cell-based
DU-145 [11] = assay: Antimetastatic activity in human DU145 cells assessed as decrease of vimentin mRNA expression at 25 to 100 uM by RT-PCR analysis; assay type: functional, cell-based
DU-145 [12] = assay: Antimetastatic activity in human DU145 cells assessed as decrease of vimentin expression at 25 to 100 uM by Western blotting; assay type: functional, cell-based
DU-145 [13] = assay: Antiinvasive activity in human DU145 cells assessed as reduction of number of invaded cells through matrigel at 100 uM after 8 hrs by Boyden chamber invasion assay in presence of TGF-beta; assay type: functional, cell-based
DU-145 [14] = assay: Antimetastatic activity in human DU145 cells assessed as decrease of PI3K/Akt expression by Western blotting; assay type: functional, cell-based
DU-145 [15] = assay: Antimetastatic activity in human DU145 cells assessed as increase of E-cadherin expression at 100 uM after 24 hrs by Western blotting in presence of TGF-beta; assay type: functional, cell-based
DU-145 [16] = assay: Antimetastatic activity in human DU145 cells assessed as reduction of vimentin expression at 100 uM after 24 hrs by Western blotting in presence of TGF-beta; assay type: functional, cell-based
DU-145 [17] = assay: Antimetastatic activity in human DU145 cells assessed as decrease of MMP9 expression at 100 uM in presence of TGF-beta; assay type: functional, cell-based
DU-145 [18] = assay: Antimetastatic activity in human DU145 cells assessed as reduction of twist expression at 100 uM after 24 hrs by Western blotting in presence of TGF-beta; assay type: functional, cell-based
DU-145 [19] = assay: Inhibition of cell adhesion in human DU145 cells in vitronectin-coated plates at 25 to 100 uM; assay type: functional, cell-based
DU-145 [20] = assay: Antimigratory activity in human DU145 cells at 100 uM by wound-healing assay; assay type: functional, cell-based
DU-145 [21] = assay: Antimetastatic activity in human DU145 cells assessed as decrease of snail mRNA expression at 25 to 100 uM by RT-PCR analysis; assay type: functional, cell-based
DU-145 [22] = assay: Antimetastatic activity in MMP9 siRNA transfected human DU145 cells assessed as increase of vimentin expression at 25 to 100 uM by Western blotting; assay type: functional, cell-based

Sequence of Matrix metalloproteinase-9 (Homo sapiens) (P14780 whole entry): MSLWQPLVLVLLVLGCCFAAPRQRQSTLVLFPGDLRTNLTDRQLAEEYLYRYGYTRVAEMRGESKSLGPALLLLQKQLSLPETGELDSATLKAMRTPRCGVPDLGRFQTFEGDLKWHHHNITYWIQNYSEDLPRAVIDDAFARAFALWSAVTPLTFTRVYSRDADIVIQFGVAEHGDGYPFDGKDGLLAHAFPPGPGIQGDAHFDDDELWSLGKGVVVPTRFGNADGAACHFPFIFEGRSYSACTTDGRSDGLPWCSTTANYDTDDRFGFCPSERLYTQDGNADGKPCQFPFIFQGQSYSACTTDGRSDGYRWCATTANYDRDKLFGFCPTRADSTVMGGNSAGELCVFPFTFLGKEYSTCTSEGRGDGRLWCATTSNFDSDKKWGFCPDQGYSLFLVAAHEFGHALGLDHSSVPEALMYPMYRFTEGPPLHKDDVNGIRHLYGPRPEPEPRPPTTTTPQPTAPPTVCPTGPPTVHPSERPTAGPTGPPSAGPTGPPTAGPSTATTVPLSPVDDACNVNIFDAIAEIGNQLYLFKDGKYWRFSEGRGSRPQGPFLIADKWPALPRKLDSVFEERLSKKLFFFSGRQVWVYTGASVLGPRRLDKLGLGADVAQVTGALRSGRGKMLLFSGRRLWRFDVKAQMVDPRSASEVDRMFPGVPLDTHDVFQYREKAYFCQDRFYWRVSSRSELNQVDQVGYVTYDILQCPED

C/C=C/c1ccc(OC)cc1 [ANETHOLE]
inactive: Activity (DU-145 [7]) | Activity (DU-145 [9]) | Activity (DU-145 [13]) | Activity (DU-145 [15]) | Activity (DU-145 [16]) | Activity (DU-145 [17]) | Activity (DU-145 [18]) | Activity (DU-145 [22])
active: Activity (DU-145 [1]) | Activity (DU-145 [2]) | Activity (DU-145 [3]) | inhibition [4] Dose-dependent effect | Activity (DU-145 [6]) | Activity (DU-145 [8]) | Activity (DU-145 [10]) | Activity (DU-145 [11]) | Activity (DU-145 [12]) | Activity (DU-145 [14]) Dose-dependent effect | inhibition (DU-145 [19]) | Activity (DU-145 [20]) | Activity (DU-145 [21])
Non-toxic: Activity (DU-145 [5])
